Experimental data as given in patent US8946299B2, “Use of calixarenes associated with an antibiotic in the treatment of bacterial infections” (Universite de Lorraine, priority 2011, dated 2015).
Blank lines part the entries; values can stand above or below the compound they belong to.

Experiments:
[1] = tested on: ESBL-producing strain of Escherichia coli (EcR3); assay: Chessboard technique: MICs alone and synergism of Cx1 combinations; type: cell-based; settings: antibiotic used alone; second figure of the cell; n = 4
Excerpt: (§1) Three reference strains were used, corresponding to those studied for the MICs and MBCs (Minimum Bactericidal Concentration): Escherichia coli ATCC 25922, Staphylococcus aureus ATCC 29213, Pseudomonas aeruginosa ATCC 27853. For each of these strains 3 corresponding clinical isolates were chosen, having various antibiotic-resistance profiles, routinely used in standard fashion: • EcR1, EcR2, EcR3; • SaR1, SaR3, SaR4; • PaR2, PaR3, PaR5.
(§2) 1.3. Procedure: Chessboard Technique
(§3) The bacterial suspension is transferred to a 15 mL Falcon tube, centrifuged for 10 min at 4500 g, then the pellet is re-suspended in 1 mL of sterile distilled water. Suitable dilutions are then prepared in order to obtain a bacterial inoculum between 5·10^5 and 5·10^6 CFU/mL.
(§4) The MICs of the antibiotics were previously determined for each strain, by the method of microdilution in a liquid medium (CLSI (Clinical and Laboratory Standards Institute), 2003).
(§5) The same procedure is followed for the Cx1. […] Thus 64 ATB/Cx1 combinations are obtained.
(§6) The final volume contained in each of the wells must be 100 μL. Two controls must be present on each plate: • column 1 and 12: medium control • column 2 and 11: medium+bacteria control
(§7) Cx1: […] in the wells of […], starting with the lowest concentration.
(§8) ATB: 25 μL in the wells of rows H to A (columns 3 to 11), starting with the lowest concentration.
(§9) 50 μL in each of the wells of columns 2 to 11.
(§10) D2: Reading the Turbidity at 540 Nm.
(§11) The FIC (Fractional Inhibitory Concentration Index) value is determined by the following formula:
(§12) [formula] MICA in combination MICA alone MICB in combination MICB alone
(§13) When FIC≦0.5, there is a synergistic effect between antibiotic A and antibiotic B.
(§14) When 0.5<FIC≦1, there is an additive effect between antibiotic A and antibiotic B.
(§15) When 1<FIC≦4, there is an indifferent effect between antibiotic A and antibiotic B.
(§16) When FIC>4, there is an antagonistic effect between antibiotic A and antibiotic B.
(§17) For each strain and each antibiotic/Cx1 combination, the experiments were repeated a minimum of 3 times.

[2] = tested on: Pseudomonas aeruginosa strain ATCC 27853 (wild type); assay: as above; type: cell-based; settings: antibiotic used alone; second figure of the cell; n = 4
Excerpt: as §1, §2, §3, §4, §5, §6, §7, §8, §9, §10, §11, §12, §13, §14, §15, §16, §17

[3] = tested on: Pseudomonas aeruginosa strain having a resistance to β-lactams (including the carbapenems), aminoglycosides, the trimethoprim-sulphamethoxazole combination and …; assay: as above; type: cell-based; settings: antibiotic used alone; second figure of the cell; n = 4
Excerpt: as §1, §2, §3, §4, §5, §6, §7, §8, §9, §10, §11, §12, §13, §14, §15, §16, §17

[4] = tested on: Staphylococcus aureus strain ATCC 29213 (wild type); assay: as above; type: cell-based; settings: antibiotic used alone; second figure of the cell; n = 4
Excerpt: as §1, §2, §3, §4, §5, §6, §7, §8, §9, §10, §11, §12, §13, §14, §15, §16, §17

[5] = tested on: mucoid strain of Pseudomonas aeruginosa having a resistance to rifampicin and the trimethoprim-sulphamethoxazole combination (PaR5); assay: as above; type: cell-based; settings: antibiotic used alone; second figure of the cell; n = 4
Excerpt: as §1, §2, §3, §4, §5, §6, §7, §8, §9, §10, §11, §12, §13, §14, §15, §16, §17

[6] = tested on: Pseudomonas aeruginosa strain having a resistance to β-lactams, the trimethoprim-sulphamethoxazole combination and fosfomycin (PaR2); type: cell-based; settings: antibiotic used alone; second figure of the cell; n = 4
Excerpt: as §1, §2, §3, §4, §5, §6, §7, §8, §9, §10, §11, §12, §13, §14, §15, §16, §17

[7] = tested on: EcR1: Penicillinase-Producing Escherichia coli without Associated Resistance; assay: Antibiogram, MIC by the VITEK 2 system; type: cell-based; settings: Table A1, category from MIC
Protocol: (§18) 5. Identification and Antibiogram 5.1 EcR1: Penicillinase-Producing Escherichia coli without Associated Resistance
(§19) The bacterial and antibiogram identification is carried out by the VITEK 2 system (bioMérieux) and by the disk diffusion technique.

[8] = tested on: EcR1: Penicillinase-Producing Escherichia coli without Associated Resistance; assay: Antibiogram by the disk diffusion technique; type: cell-based; settings: for Results (diameter): Table A1, category from diameter vs Dmin Dmax; for diameter in mm: Table A2, diameter
Protocol: as §18, §19

[9] = tested on: Escherichia coli strain ATCC 25922 (wild type); assay: Chessboard technique: MICs alone and synergism of Cx1 combinations; type: cell-based; settings: antibiotic used alone; second figure of the cell; n = 4
Excerpt: as §1, §2, §3, §4, §5, §6, §7, §8, §9, §10, §11, §12, §13, §14, §15, §16, §17

[10] = tested on: cephalosporinase-hyperproducing strain of Escherichia coli (EcR2); assay: as above; type: cell-based; settings: antibiotic used alone; second figure of the cell; n = 4
Excerpt: as §1, §2, §3, §4, §5, §6, §7, §8, §9, §10, §11, §12, §13, §14, §15, §16, §17

[11] = tested on: MRSA strain having a resistance to the aminoglycosides and fluoroquinolones (SaR3); assay: as above; type: cell-based, Staphylococcus aureus; settings: antibiotic used alone; second figure of the cell; n = 4
Excerpt: as §1, §2, §3, §4, §5, §6, §7, §8, §9, §10, §11, §12, §13, §14, §15, §16, §17

[12] = tested on: MRSA strain having a resistance to the aminoglycosides, fluoroquinolones, macrolides-lincosamides-synergistins and ofloxacin (SaR4); assay: as above; type: cell-based, Staphylococcus aureus; settings: antibiotic used alone; second figure of the cell; n = 4
Excerpt: as §1, §2, §3, §4, §5, §6, §7, §8, §9, §10, §11, §12, §13, §14, §15, §16, §17

[13] = tested on: MRSA strain without associated resistance (SaR1); assay: as above; type: cell-based, Staphylococcus aureus; settings: antibiotic used alone; second figure of the cell; n = 4
Excerpt: as §1, §2, §3, §4, §5, §6, §7, §8, §9, §10, §11, §12, §13, §14, §15, §16, §17

[14] = tested on: Escherichia coli, Staphylococcus aureus and Pseudomonas aeruginosa strains; assay: Chessboard technique, summary over all strains and combinations tested; type: cell-based
Excerpt: as §1, §2
The FIC (Fractional Inhibitory Concentration Index) value is determined by the following formula: […]
as §17

[15] = tested on: penicillinase-producing strain of Escherichia coli without associated resistance (EcR1); assay: Chessboard technique: MICs alone and synergism of Cx1 combinations; type: cell-based; settings: antibiotic used alone; second figure of the cell; n = 4
Excerpt: as §1, §2, §3, §4, §5, §6, §7, §8, §9, §10, §11, §12, §13, §14, §15, §16, §17

Initial MICs (antibiotic) [9]: 4/4 mg/L
Initial MICs (antibiotic) [10]: 256 mg/L
Results (MIC) [7]: Resistant
SMILES: CC1(C)S[C@@H]2[C@H](NC(=O)[C@H](N)c3ccc(O)cc3)C(=O)N2[C@H]1C(=O)O [Amoxicillin]
Results (diameter) [8]: Resistant

Results (MIC) [7]: Susceptible
SMILES: CC(=O)OCC1=C(C(=O)O)N2C(=O)[C@@H](NC(=O)Cc3cccs3)[C@H]2SC1 [C1G, Cefalotine]
Results (diameter) [8]: Intermediate

Initials MIC (antibiotic) [4]: 2 mg/L
MIC (antibiotic) [12]: 4 µg/mL
SMILES: CC(=O)O[C@H]1C[C@@]2(C)[C@@H](C[C@@H](O)[C@H]3[C@@]4(C)CC[C@@H](O)[C@@H](C)[C@@H]4CC[C@@]32C)/C1=C(\CCC=C(C)C)C(=O)O [Fusidic acid]
nature of the interaction between Cx1 and the antibiotic [14]: synergism

MIC (antibiotic) [11]: 8/8 mg/L
SMILES: C[C@H]1COc2c(N3CCN(C)CC3)c(F)cc3c(=O)c(C(=O)O)cn1c23 [Levofloxacin]

Initials MIC (antibiotic) [4]: 2 mg/L
MIC (antibiotic) [11]: 2 mg/L
MIC (antibiotic) [12]: 2 µg/mL
MIC (antibiotic) [13]: 2 µg/mL
SMILES: CC(=O)NC[C@H]1CN(c2ccc(N3CCOCC3)c(F)c2)C(=O)O1 [Linezolid]

Results (MIC) [7]: Susceptible
SMILES: CCN[C@@H]1C[C@H](N)[C@@H](O[C@H]2OC(CN)=CC[C@H]2N)[C@H](O)[C@H]1O[C@H]1OC[C@](C)(O)[C@H](NC)[C@H]1O [Netilmicin]
Results (diameter) [8]: Susceptible

Results (MIC) [7]: Susceptible
SMILES: CCn1cc(C(=O)O)c(=O)c2cc(F)c(N3CCNCC3)cc21 [Norfloxacin]

Initial MICs (antibiotic) [1]: 128 mg/L
Initial MICs (antibiotic) [9]: 2 mg/L
Initial MICs (antibiotic) [10]: 32 mg/L
Initial MICs (antibiotic) [15]: 256 mg/L
Results (MIC) [7]: Susceptible
SMILES: CCN1CCN(C(=O)N[C@@H](C(=O)N[C@@H]2C(=O)N3[C@@H]2SC(C)(C)[C@@H]3C(=O)O)c2ccccc2)C(=O)C1=O [Piperacillin]
Results (diameter) [8]: Intermediate

Initials MIC (antibiotic) [4]: 4 mg/L
MIC (antibiotic) [11]: 4 mg/L
MIC (antibiotic) [12]: 4 µg/mL
MIC (antibiotic) [13]: 4 µg/mL
SMILES: [H]/N=C(/N)N[C@H]1[C@H](O)[C@@H](O)[C@H](O[C@@H]2O[C@@H](C)[C@](O)(C=O)[C@H]2O[C@@H]2O[C@@H](CO)[C@H](O)[C@@H](O)[C@@H]2NC)[C@@H](N/C(N)=N\[H])[C@@H]1O [Streptomycin]
nature of the interaction between Cx1 and the antibiotic [14]: synergism

Results (MIC) [7]: Resistant
SMILES: CC1(C)S[C@@H]2[C@H](NC(=O)[C@H](C(=O)O)c3ccsc3)C(=O)N2[C@H]1C(=O)O [Ticarcillin]
Results (diameter) [8]: Resistant

The remaining lines, values behind:

SMILES: NCC[C@H](O)C(=O)N[C@@H]1C[C@H](N)[C@@H](O[C@H]2O[C@H](CN)[C@@H](O)[C@H](O)[C@H]2O)[C@H](O)[C@H]1O[C@H]1O[C@H](CO)[C@@H](O)[C@H](N)[C@H]1O [Amikacin]
Initial MICs (antibiotic) [1]: 1 mg/L
MIC (antibiotic) [2]: 0.5 µg/mL
MIC (antibiotic) [3]: 1 mg/L
Initials MIC (antibiotic) [4]: 1 mg/L
MIC (antibiotic) [5]: 0.5 µg/mL
MIC (antibiotic) [6]: 1 µg/mL
Results (MIC) [7]: Susceptible
Results (diameter) [8]: Susceptible

SMILES: C[C@H]1[C@H](NC(=O)/C(=N\OC(C)(C)C(=O)O)c2csc(N)n2)C(=O)N1S(=O)(=O)O [Aztreonam]
Results (diameter) [8]: Susceptible
diameter in mm [8]: 28 mm

SMILES: CO/N=C(\C(=O)N[C@@H]1C(=O)N2C(C(=O)[O-])=C(C[N+]3(C)CCCC3)CS[C@H]12)c1csc(N)n1 [Cefepime]
Results (diameter) [8]: Susceptible
diameter in mm [8]: 27 mm

SMILES: O=C(O)c1cn(C2CC2)c2cc(N3CCNCC3)c(F)cc2c1=O [Ciprofloxacin]
Results (diameter) [8]: Susceptible

SMILES: C[C@@H]1O[C@@H]1P(=O)(O)O [Fosfomycin]
MIC (antibiotic) [2]: 16 µg/mL
MIC (antibiotic) [3]: > 64 mg/L
Initials MIC (antibiotic) [4]: 8/8 mg/L
MIC (antibiotic) [5]: 16 µg/mL
MIC (antibiotic) [11]: 16 mg/L
MIC (antibiotic) [12]: 128 µg/mL
MIC (antibiotic) [13]: 2 µg/mL
MIC (antibiotic) [6]: 64 µg/mL
Results (diameter) [8]: Susceptible
diameter in mm [8]: 24 mm
nature of the interaction between Cx1 and the antibiotic [14]: synergism

SMILES: C[C@@H](O)[C@H]1C(=O)N2C(C(=O)O)=C(SCCN=CN)C[C@H]12 [Imipenem]
MIC (antibiotic) [2]: 2 µg/mL
MIC (antibiotic) [3]: 32/32 mg/L
MIC (antibiotic) [5]: 2 µg/mL
MIC (antibiotic) [12]: 2 µg/mL
MIC (antibiotic) [6]: 2 µg/mL

SMILES: CN(C)c1ccc(O)c2c1C[C@H]1C[C@H]3[C@H](N(C)C)C(O)=C(C(N)=O)C(=O)[C@@]3(O)C(O)=C1C2=O [Minocycline]
diameter in mm [8]: 20 mm

SMILES: CCn1cc(C(=O)O)c(=O)c2ccc(C)nc21 [Nalidixic acid]
Results (MIC) [7]: Susceptible

SMILES: CO[C@H]1/C=C/O[C@@]2(C)Oc3c(C)c(O)c4c(O)c(c(/C=N/N5CCN(C)CC5)c(O)c4c3C2=O)NC(=O)/C(C)=C\C=C\[C@H](C)[C@H](O)[C@@H](C)[C@@H](O)[C@@H](C)[C@H](OC(C)=O)[C@@H]1C [Rifampicin]
Initial MICs (antibiotic) [1]: 4 mg/L
Initial MICs (antibiotic) [9]: 4/4 mg/L
MIC (antibiotic) [2]: 64 µg/mL
MIC (antibiotic) [3]: 32/32 mg/L
Initial MICs (antibiotic) [10]: 2/2 mg/L
MIC (antibiotic) [5]: 16 µg/mL
Initial MICs (antibiotic) [15]: 4 mg/L
MIC (antibiotic) [6]: 64 µg/mL
diameter in mm [8]: 16 mm

SMILES: CN(C)c1cc(NC(=O)CNC(C)(C)C)c(O)c2c1C[C@H]1C[C@H]3[C@H](N(C)C)C(O)=C(C(N)=O)C(=O)[C@@]3(O)C(O)=C1C2=O [Tigecycline]
nature of the interaction between Cx1 and the antibiotic [14]: synergism
